Reference: patent publication US20170209413A1, “USE OF ASPARAGUSIC ACID AND DERIVATIVES THEREOF TO TREAT SYMPTOMS AND DISORDERS OF NEUROLOGICAL DISEASE” (priority 2016, published 2017)

Key:
[1] = tested on: shaking from Parkinson disease; experiment: hand writing skill test for relief of the shaking from Parkinson disease in one patient; type: in vivo, human
Protocol: A patient diagnosed with Parkinson's disease and in need of treatment by the methods disclosed herein was administered compositions comprising the compounds disclosed herein. The patient had been diagnosis with Parkinson's disease by two medical doctors, the family doctor and a neurologist. They had taken L-Dopa for over a year. The patient informed their doctors that they were no longer taking L-Dopa. They took nothing for their Parkinson's Disease for almost a year before beginning to take asparagusic acid.
The test for relief of the shaking from Parkinson disease was the patient's hand writing skill. Prior to treatment with asparagusic acid the patient could not write their name. […] Normally the ability to write was diminished within 12 hours, but their varied.
The asparagus top third was cut from the stalk and weighed. 50 to 100 grams was used per treatment. The tops were steamed for a short period of time. This was typically done by placing the asparagus tops in a pie plate and covered. No water was added. After a short heating period, for example heating in a microwave for 44 seconds on high, the asparagus is “self” steamed from water in the plant and may substantially help in the formation of asparagusic acid from asparaptine. […] Excess heating will decompose asparagusic acid and will likely form a dihydro byproduct by splitting the disulfide linkage.
A preparation as described above was taken at least two hours after eating. The asparagus was consumed immediately after heating with salt and taken with simple non-caffeine liquids such as water and white wine. No further food was consumed for at least an hour. […] One exception was found. […] It is noted that raw eggs contain many sulfur compounds.

[2] = boiling for 30 minutes; rearranges to 1,2,3-trithiane-5-carboxylic acid and 1,2-dithiacylopentene; cited from earlier work

Structure (SMILES) | effect on shaking, lipoic acid ([1]; 250 mg tablet, same manner in regards to food consumption as Example 1) | time until ability to write was diminished ([1]; one Parkinson's patient, after treatment, varied) [h] | relief of the shaking from Parkinson disease (patient's hand writing skill) ([1]; one Parkinson's patient, 50 to 100 grams asparagus tops, steamed a short time (microwave 44 seconds), taken at least two hours after eating, no food for at least an hour) | stability during cooking [2]
O=C(O)CCCC[C@@H]1CCSS1 (racemic) [lipoic acid, reference compound] | no effect |  |  | 
O=C(O)C1CSSC1 [asparagusic acid, 1,2-dithiolane-4-carboxylic acid] |  | ≤ 12 | could easily write their name in a flowing easy manner | not vary stable
